Measurements published in PubChem BioAssay AID330 (DTP/NCI, 2004).
“And” between values parts separate entries of the source, which are not always exact repeats. Identical values can stand only once. Toxic doses and inconclusive results are not listed. The calls were made as follows: active = survival T/C of 150% or more; inactive = T/C below 125% in these data.

System: P388 leukemia ip, CD2F1 mice, survival T/C
Assay: NCI In Vivo Anticancer Drug Screen. Data for tumor model P388 Leukemia (intraperitoneal) in CD2F1 (CDF1) mice
Settings: endpoint: median survival time, higher = longer survival
Outline: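 Mice carrying the transplanted tumor received test compound or vehicle. Survival was recorded in each group, and the value is the treated-group measurement divided by that of the vehicle-treated control group.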

[1] = dose: 60.0 mg/kg/injection, schedule: Q01DX005 (ip), vehicle: saline with Tween-80
[2] = dose: 120.0 mg/kg/injection, schedule: Q01DX005 (ip), vehicle: saline with Tween-80
[3] = dose: 240.0 mg/kg/injection, schedule: Q01DX005 (ip), vehicle: saline with Tween-80
[4] = dose: 100.0 mg/kg/injection, schedule: Q01DX001 (ip), vehicle: Klucel (hydroxypropylcellulose) (HPC)
[5] = dose: 200.0 mg/kg/injection, schedule: Q01DX001 (ip), vehicle: Klucel (hydroxypropylcellulose) (HPC)
[6] = dose: 400.0 mg/kg/injection, schedule: Q01DX001 (ip), vehicle: Klucel (hydroxypropylcellulose) (HPC)
[7] = dose: 50.0 mg/kg/injection, schedule: Q01DX009 (ip), vehicle: Klucel (hydroxypropylcellulose) (HPC)
[8] = dose: 100.0 mg/kg/injection, schedule: Q01DX009 (ip), vehicle: Klucel (hydroxypropylcellulose) (HPC)
[9] = dose: 200.0 mg/kg/injection, schedule: Q01DX009 (ip), vehicle: Klucel (hydroxypropylcellulose) (HPC)
[10] = dose: 6.25 mg/kg/injection, schedule: Q01DX009 (ip), vehicle: water
[11] = dose: 12.5 mg/kg/injection, schedule: Q01DX009 (ip), vehicle: water
[12] = dose: 25.0 mg/kg/injection, schedule: Q01DX009 (ip), vehicle: water
[13] = dose: 50.0 mg/kg/injection, schedule: Q01DX009 (ip), vehicle: water
[14] = dose: 100.0 mg/kg/injection, schedule: Q01DX009 (ip), vehicle: water
[15] = dose: 50.0 mg/kg/injection, schedule: Q01DX005 (ip), vehicle: saline with Tween-80
[16] = dose: 100.0 mg/kg/injection, schedule: Q01DX005 (ip), vehicle: saline with Tween-80
[17] = dose: 200.0 mg/kg/injection, schedule: Q01DX005 (ip), vehicle: saline with Tween-80
[18] = dose: 100.0 mg/kg/injection, schedule: Q04DX002 (ip), vehicle: saline

Measured: T/C

CC1(C)Cc2ccccc2/C1=C/c1ccccn1
inactive: [1] 98 % of control | [2] 100 % of control | [3] 108 % of control

N#Cc1c(-c2ccc(Cl)cc2)cn2c1[nH]c(=O)c1ccccc12
inactive: [1] 107 % of control | [2] 102 % of control | [3] 96 % of control

N#CC(c1cc2c(cc1Br)OCO2)N1CCCC1 (stereo unspecified)
inactive: [4] 100 % of control | [5] 101 % of control | [6] 99 % of control

CCOC(=O)/C=C(\C)NC1CC(=O)NC1=O (stereo unspecified)
inactive: dose: 50.0 mg/kg/injection, schedule: Q01DX009 (ip), vehicle: distilled water + alcohol 104 % of control | dose: 100.0 mg/kg/injection, schedule: Q01DX009 (ip), vehicle: distilled water + alcohol 108 % of control

NC1CC2(CCC1=O)c1ccccc1-c1ccccc12 (stereo unspecified)
inactive: dose: 100.0 mg/kg/injection, schedule: Q01DX001 (ip), vehicle: saline with Tween-80 105 % of control | dose: 400.0 mg/kg/injection, schedule: Q01DX001 (ip), vehicle: saline with Tween-80 102 % of control

CCCCCCCCCCCCCCCCNC(=S)N=Nc1cc(C(C)C)c(NNC(=S)NCCCCCCCCCCCCCCCC)cc1C
inactive: dose: 50.0 mg/kg/injection, schedule: Q01DX005 (ip), vehicle: Klucel (hydroxypropylcellulose) (HPC) 92 % of control | dose: 100.0 mg/kg/injection, schedule: Q01DX005 (ip), vehicle: Klucel (hydroxypropylcellulose) (HPC) 99 % of control | dose: 200.0 mg/kg/injection, schedule: Q01DX005 (ip), vehicle: Klucel (hydroxypropylcellulose) (HPC) 97 % of control

COc1nc(Nc2cccc(F)c2)nc(OC)n1
inactive: [7] 98 % of control | [8] 95 % of control | [9] 101 % of control

COc1cc2cnccc2cc1O
inactive: [10] 92 % of control | [11] 103 % of control | [12] 98 % of control | [13] 95 % of control | [14] 110 % of control

Cc1cc2nc(CC(=O)c3cccc([N+](=O)[O-])c3)c(=O)[nH]c2cc1C
inactive: dose: 7.5 mg/kg/injection, schedule: Q01DX005 (ip), vehicle: saline with Tween-80 95 % of control | dose: 15.0 mg/kg/injection, schedule: Q01DX005 (ip), vehicle: saline with Tween-80 96 % of control | dose: 30.0 mg/kg/injection, schedule: Q01DX005 (ip), vehicle: saline with Tween-80 91 % of control

Cc1cccc(NC(=O)Oc2ccc(Cl)cc2C(=O)c2ccccc2)c1
inactive: [1] 97 % of control | [2] 98 % of control | [3] 105 % of control

c1ccc(-c2cc(Nc3ccc4c(c3)OCO4)c3cc(C4CCCCC4)ccc3n2)cc1
inactive: [1] 103 % of control | [2] 93 % of control | [3] 89 % of control

O=C1OC(/C=C/c2ccccc2)=NC/1=C\c1ccccc1
inactive: dose: 60.0 mg/kg/injection, schedule: Q01DX005 (ip), vehicle: Klucel + Tween-80 103 % of control | dose: 120.0 mg/kg/injection, schedule: Q01DX005 (ip), vehicle: Klucel + Tween-80 99 % of control | dose: 240.0 mg/kg/injection, schedule: Q01DX005 (ip), vehicle: Klucel + Tween-80 97 % of control

CCOC(=O)c1csc(C2OC(COC(=O)c3ccccc3)C(OC(=O)c3ccccc3)C2OC(=O)c2ccccc2)n1 (stereo unspecified)
inactive: dose: 50.0 mg/kg/injection, schedule: Q01DX009 (ip), vehicle: saline with Tween-80 96 % of control | dose: 100.0 mg/kg/injection, schedule: Q01DX009 (ip), vehicle: saline with Tween-80 95 % of control | dose: 200.0 mg/kg/injection, schedule: Q01DX009 (ip), vehicle: saline with Tween-80 93 % of control

CCOC(=O)c1ccc(NC(=O)Oc2ccc3c(C)cc(=O)oc3c2)cc1
inactive: [1] 98 % of control | [2] 98 % of control | [3] 103 % of control

CCCCCCCCS(=O)(=O)OCCCCOS(=O)(=O)CCCCCCCC
inactive: dose: 31.25 mg/kg/injection, schedule: Q01DX005 (ip), vehicle: Klucel (hydroxypropylcellulose) (HPC) 103 % of control | dose: 62.5 mg/kg/injection, schedule: Q01DX005 (ip), vehicle: Klucel (hydroxypropylcellulose) (HPC) 103 % of control | dose: 125.0 mg/kg/injection, schedule: Q01DX005 (ip), vehicle: Klucel (hydroxypropylcellulose) (HPC) 103 % of control

O=C1CCCCCCCNC(=O)CCCCCCC(=O)NCCCCCCCC(=O)NCCCCCCCCN1
inactive: dose: 50.0 mg/kg/injection, schedule: Q01DX001 (ip), vehicle: Klucel (hydroxypropylcellulose) (HPC) 91 % of control | [4] 90 % of control | [5] 86 % of control and 89 % of control | [6] 89 % of control

Cc1cc(C(=O)O)nn1-c1ccc(S(=O)(=O)N2CCC(=O)N(C3CCCCC3)C2=S)cc1
inactive: [15] 95 % of control | [16] 101 % of control | [17] 101 % of control

Cc1cs/c(=N/N=C2C=CC(=O)C=C2)n1O
inactive: [7] 102 % of control | [8] 107 % of control | [9] 101 % of control

CN(C)C(=S)/N=c1\ss/c(=N/C(=S)N(C)C)n1-c1ccc([N+](=O)[O-])cc1
inactive: dose: 6.25 mg/kg/injection, schedule: Q01DX009 (ip), vehicle: saline with Tween-80 102 % of control | dose: 12.5 mg/kg/injection, schedule: Q01DX009 (ip), vehicle: saline with Tween-80 103 % of control | dose: 25.0 mg/kg/injection, schedule: Q01DX009 (ip), vehicle: saline with Tween-80 103 % of control

O=C1c2ccccc2C(=O)c2c1c(O)c1cccnc1c2O
inactive: [15] 103 % of control | [16] 100 % of control | [17] 95 % of control

CCc1cccc(C)c1NC(=O)C(=O)CC(=O)c1ccc(Cl)cc1Cl
inactive: [1] 114 % of control | [2] 116 % of control | [3] 113 % of control

CCCCCCC1(/C=C\c2ccc(Cl)c(Cl)c2)OCCO1
inactive: [7] 93 % of control | [8] 108 % of control | [9] 100 % of control

Nc1nc(CCl)nc(Nc2ccccc2)n1
inactive: dose: 12.5 mg/kg/injection, schedule: Q01DX009 (ip), vehicle: Klucel (hydroxypropylcellulose) (HPC) 101 % of control | dose: 25.0 mg/kg/injection, schedule: Q01DX009 (ip), vehicle: Klucel (hydroxypropylcellulose) (HPC) 101 % of control | [7] 101 % of control | [8] 99 % of control

O=C1Cc2ccccc2N1C(=O)c1ccc(Br)cc1
inactive: [4] 94 % of control | [5] 90 % of control

C=C1C(=O)OC2C=CCCC12 (stereo unspecified)
inactive: [11] 101 % of control | [12] 103 % of control | [13] 106 % of control | [14] 118 % of control

NC1=NC(O)(c2ccccc2)C(O)(c2ccccc2)N1 (stereo unspecified)
inactive: dose: 25.0 mg/kg/injection, schedule: Q04DX002 (ip), vehicle: saline 98 % of control | dose: 50.0 mg/kg/injection, schedule: Q04DX002 (ip), vehicle: saline 97 % of control | [18] 98 % of control

C(NC=C(c1ccccc1)c1ccccc1)=C(c1ccccc1)c1ccccc1
inactive: [4] 103 % of control | [5] 107 % of control | [6] 103 % of control

CNC(=S)NNC(=O)C(Cc1ccc([N+](=O)[O-])cc1)C(=O)NNC(=S)NC
inactive: [18] 98 % of control | dose: 200.0 mg/kg/injection, schedule: Q04DX002 (ip), vehicle: saline 98 % of control | dose: 400.0 mg/kg/injection, schedule: Q04DX002 (ip), vehicle: saline 90 % of control

COC(=O)C1C2C=CC(CC2)C1C(=O)OC (stereo unspecified)
inactive: dose: 100.0 mg/kg/injection, schedule: Q04DX003 (ip), vehicle: saline with Tween-80 98 % of control | dose: 200.0 mg/kg/injection, schedule: Q04DX003 (ip), vehicle: saline with Tween-80 102 % of control | dose: 400.0 mg/kg/injection, schedule: Q04DX003 (ip), vehicle: saline with Tween-80 89 % of control

CCN(CC)CCCC(C)NCC#CCNC(C)CCCN(CC)CC (stereo unspecified)
inactive: dose: 1.56 mg/kg/injection, schedule: Q01DX009 (ip), vehicle: water 105 % of control | dose: 3.13 mg/kg/injection, schedule: Q01DX009 (ip), vehicle: water 108 % of control | [10] 104 % of control | [11] 105 % of control

C=C(C)C(=NC(C)C)Nc1ccccc1
inactive: dose: 6.25 mg/kg/injection, schedule: Q01DX005 (ip), vehicle: Klucel (hydroxypropylcellulose) (HPC) 103 % of control and 104 % of control | dose: 12.5 mg/kg/injection, schedule: Q01DX005 (ip), vehicle: Klucel (hydroxypropylcellulose) (HPC) 107 % of control and 123 % of control and 96 % of control | dose: 25.0 mg/kg/injection, schedule: Q01DX005 (ip), vehicle: Klucel (hydroxypropylcellulose) (HPC) 99 % of control and 104 % of control and 106 % of control
